# Patent EP4585588A1, “BENZIMIDAZOLE COMPOUND, AND PREPARATION METHOD THEREFOR AND USE THEREOF” (Suzhou Pharmavan Co., Ltd., priority 2022, dated 2024)
# Tested on: myosin heavy chain β (β-MHC)
# Details: 48 h, 10 µM
# Experimental: Primary cardiomyocytes of suckling rats were isolated and cultured and inoculated on a cell culture plate. A drug stock solution was taken and separately added to cell wells according to a certain dilution ratio, and a final concentration was 10 µM. After half hour of drug action, a phenylephrine (PE) stock solution was added, and a final concentration of PE was 20 µM. After 48 hours of PE action, cell samples were collected for real-time quantitative PCR assay or cell area measurement.
# Separation and plating of cardiomyocytes of rats: a certain number of SPF suckling rats were taken and placed in a clean bench according to an actual requirement for the number of cells, thoracic cavities were opened by scissors, hearts were separated, and the hearts were cut into tissue fragments with sterilized surgical scissors; Collagenase Type II (manufacturer: Sigma, article No.: C2-28-100MG) was added to a D-HANKS balanced salt buffer to prepare a 5 µg/mL enzyme digestion solution, and the tissue fragments of hearts were continuously digested for three times in a 37 °C constant-temperature water bath box; about 2 mL of the enzyme digestion solution was added for the first time, a supernatant was discarded after digestion, centrifugation and precipitation of cardiomyocytes and tissue fragments, about 4 mL of the enzyme digestion solution was independently added for the second time and the third time to continue digestion, a supernatant was remained each time, DMEM containing 10% FBS with the same volume as the digestion solution in the supernatant was immediately added to neutralize digestive enzymes, the supernatants for the second time and the third time were combined and centrifuged, a supernatant was discarded, an appropriate amount of DMEM containing 10% FBS was added to resuspend the cardiomyocytes, the cardiomyocytes were inoculated in a 100 mm culture plate and subjected to differential adhesion in a constant-temperature cell incubator for 2 h, and a supernatant was taken for cell count.
# A 24-well plate precoated with 1% gelatin was taken and plated at 1×10^5 cells/well, 500 µL of a 10% FBS+DMEM medium was contained in each well, and cells were cultured in a 37 °C constant-temperature cell incubator for 24 h. Different compounds were independently prepared into a 100 mM mother liquor with DMSO and gradient diluted with a 10% FBS+DMEM medium to prepare a 10 µM final solution of the compound containing 0.5% DMSO. The medium in the 24-well plate was discarded and replaced with a 500 µL/well medium containing a 10 µM compound, and three replicate wells and a negative control well were set for each compound. After 0.5 hours of drug action, PE (manufacturer: Meilun Biotechnology; article No.: MB1602) with a final concentration of 20 µM was added to each well, and no PE was added to the negative control wells; after 48 hours of PE action, sample detection was performed.
# Expression levels of genes related to cardiomyocyte hypertrophy was analyzed via real-time quantitative PCR detection of mRNA level of atrial natriuretic peptide (ANP) and myosin heavy chain β (β-MHC). The steps include extraction of total RNA of cells, reverse transcription synthesis of cDNA and real-time quantitative PCR assay.
# Based on real-time quantitative PCR detection of an mRNA level of ANP of cardiomyocytes, a drug with a potential of anti-cardiomyocyte hypertrophy was preliminarily screened and verified with an mRNA level of another hypertrophy gene β-MHC using a statistical method One-way ANOVA and statistical software GraphPad Prism.
row,Compound,Mean (real-time quantitative PCR validation results of cardiomyocyte β-MHC)
1,"COC(=O)c1cc(F)c(CO)c(-c2ccc3[nH]c(C)nc3c2)c1 [Formula II-110, methyl 3-fluoro-4-(hydroxymethyl)-5-(2-methyl-1H-benzimidazol-5-yl) benzoate]",1.34
2,"CN(C)C(=O)c1cc(F)c(CO)c(-c2ccc3[nH]cnc3c2)c1 [Formula II-128, 3-fluoro-4-(hydroxymethyl)-N,N-dimethyl-5-(1H-benzimidazol-5-yl)benzamide]",1.27
3,"Cc1nc2cc(-c3cc(CC#N)cc(F)c3O)ccc2[nH]1 [Formula I-19, 2-(3-fluoro-4-hydroxy-5-(2-methyl-1H-benzimidazol-5-yl)phenyl)acetonitrile]",1.26
4,"O=C(O)c1ccc(O)c(-c2ccc3[nH]cnc3c2)c1 [Formula I-33, 4-hydroxy-3-(1H-benzimidazol-5-yl)benzoic acid]",1.22
5,"CC(C)(O)c1ccc(CC#N)cc1-c1ccc2[nH]cnc2c1 [Formula II-43, 2-(4-(2-hydroxypropan-2-yl)-3-(1H-benzimidazol-5-yl)phenyl)acetonitrile]",1.21
6,"Cc1nc2cc(-c3cc(C(=O)N(C)C)cc(F)c3CO)ccc2[nH]1 [Formula II-104, 3-fluoro-4-(hydroxymethyl)-N,N-dimethyl-5-(2-methyl-1H-benzimidazol-5-yl)benzamide]",1.25
7,"C=CCc1cc(C#N)c(C(C)O)c(-c2ccc3[nH]cnc3c2)c1 (stereo not shown) [Formula II-90, 5-allyl-2-(1-hydroxyethyl)-3-(1H-benzimidazol-5-yl)benzonitrile]",1.27
8,"CCCc1ccc(O)c(-c2ccc3[nH]c(C)nc3c2)c1 [Formula I-21, 2-(2-methyl-1H-benzimidazol-5-yl)-4-propylphenol]",1.05
9,"CCCc1cc(C#N)c(CO)c(-c2ccc3[nH]c(C)nc3c2)c1 [Formula II-120, 2-(hydroxymethyl)-3-(2-methyl-1H-benzimidazol-5-yl)-5-propylbenzonitrile]",1.45
10,"CCCc1ccc(CO)c(-c2ccc3[nH]cnc3c2)c1 [Formula II-142, (2-(1H-benzimidazol-5-yl)-4-propylphenyl)methanol]",1.40
11,"NC(=O)c1cc(F)c(O)c(-c2ccc3[nH]cnc3c2)c1 [Formula I-28, 3-fluoro-4-hydroxy-5-(1H-benzimidazol-5-yl)benzamide]",1.07
12,"C=CCc1cc(C#N)c(C(C)(C)O)c(-c2ccc3[nH]cnc3c2)c1 [Formula II-42, 5-allyl-2-(2-hydroxypropan-2-yl)-3-(1H-benzimidazol-5-yl)benzonitrile]",1.48
13,"Cc1nc2cc(-c3cc(C(=O)O)cc(F)c3O)ccc2[nH]1 [Formula I-10, 3-fluoro-4-hydroxy-5-(2-methyl-1H-benzimidazol-5-yl)benzoic acid]",1.14
14,"Cc1nc2cc(-c3cc(C(=O)N(C)C)cc(C#N)c3C(C)(C)O)ccc2[nH]1 [Formula II-9, 3-cyano-4-(2-hydroxypropan-2-yl)-N,N-dimethyl-5-(2-methyl-1H-benzimidazol-5-yl)benzamide]",1.18
15,"CN(C)C(=O)c1cc(C#N)c(CO)c(-c2ccc3[nH]cnc3c2)c1 [Formula II-129, 3-cyano-4-(hydroxymethyl)-N,N-dimethyl-5-(1H-benzimidazol-5-yl)benzamide]",1.34
16,"Cc1nc2cc(-c3cc(CC#N)cc(F)c3CO)ccc2[nH]1 [Formula II-116, 2-(3-fluoro-4-(hydroxymethyl)-5-(2-methyl-1H-benzimidazol-5-yl)phenyl)acetonitrile]",1.58
